For orientation: IC50 means the concentration that gives 50% inhibition.

Read-outs that look alike come from different tables or passages of the source.

In this assay the target is T1, USP25 (USP25-His6, Boston Biochem E-546) (Homo sapiens, UniProt Q9UHP3).
T1 construct: His6; purchased Boston Biochem E-546
T1 sequence (Q9UHP3 1-1055): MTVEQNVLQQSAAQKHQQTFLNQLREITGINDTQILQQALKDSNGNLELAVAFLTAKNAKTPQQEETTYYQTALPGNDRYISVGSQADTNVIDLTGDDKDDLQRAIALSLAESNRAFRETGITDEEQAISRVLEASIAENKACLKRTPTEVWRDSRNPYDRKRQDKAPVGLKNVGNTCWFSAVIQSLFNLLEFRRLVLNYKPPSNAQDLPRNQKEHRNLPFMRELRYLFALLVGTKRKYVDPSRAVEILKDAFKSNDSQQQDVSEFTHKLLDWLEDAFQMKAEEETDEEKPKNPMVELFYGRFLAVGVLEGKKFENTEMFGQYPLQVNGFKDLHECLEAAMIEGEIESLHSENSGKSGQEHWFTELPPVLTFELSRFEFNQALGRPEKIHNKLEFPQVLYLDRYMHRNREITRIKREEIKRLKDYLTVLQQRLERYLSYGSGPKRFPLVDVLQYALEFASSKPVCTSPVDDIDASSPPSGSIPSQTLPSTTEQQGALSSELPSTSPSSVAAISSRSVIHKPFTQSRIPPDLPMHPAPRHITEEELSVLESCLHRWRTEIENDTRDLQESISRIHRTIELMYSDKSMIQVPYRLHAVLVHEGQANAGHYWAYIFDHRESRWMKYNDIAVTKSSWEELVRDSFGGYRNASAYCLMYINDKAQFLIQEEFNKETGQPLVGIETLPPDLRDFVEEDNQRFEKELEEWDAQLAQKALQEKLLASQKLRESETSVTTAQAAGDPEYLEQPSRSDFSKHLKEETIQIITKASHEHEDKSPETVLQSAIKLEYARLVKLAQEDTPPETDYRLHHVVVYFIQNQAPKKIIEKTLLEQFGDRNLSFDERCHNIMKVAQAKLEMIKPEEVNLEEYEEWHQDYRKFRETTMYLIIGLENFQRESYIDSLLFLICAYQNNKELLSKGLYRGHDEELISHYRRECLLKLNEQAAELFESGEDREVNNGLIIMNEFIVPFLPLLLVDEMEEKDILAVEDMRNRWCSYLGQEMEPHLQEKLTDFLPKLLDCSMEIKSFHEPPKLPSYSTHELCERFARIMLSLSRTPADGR
Nature of the assay: Ubiquitin-Rhodamine 110 Assay for USP25 Activity, Example A-2. The format is biochemical. Conditions: Example A-2, read-out: USP25 A-2 IC50 range. In a few lines:
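Cleavage of ubiquitin-rhodamine 110 (25 nM, well below Km) by His-tagged USP25 at 75 pM is measured fluorimetrically after 45 min at room temperature and acid quench. Inhibitors are preincubated with enzyme for 30 minutes. IC50 values come from four-parameter logistic curve fitting.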

As to `Cc1cc(C)c2c(N)c(C(=O)N[C@H]3COc4cc(N5CCNCC5)ccc4C3)sc2n1` [Example 2-17, (R)-3-amino-4,6-dimethyl-N-(7-(piperazin-1-yl)chroman-3-yl)thieno[2,3-b]pyridine-2-carboxamide], the IC50 (Ub-Rh110 assay) lay in the range of 50 to 200 nM. Still for that read-out and setting: as for `Cc1cc(C)c2c(N)c(C(=O)N[C@H]3COc4cc(N5CC6CC(C5)N6)ccc4C3)sc2n1` [Example 2-18, N-((3R)-7-(3,6-diazabicyclo[3.1.1]heptan-3-yl)chroman-3-yl)-3-amino-4,6-dimethylthieno[2,3-b]pyridine-2-carboxamide], the figure is 50 to 200 nM; as for `Cc1cc(C)c2c(N)c(C(=O)N[C@H]3COc4cc(N5CC6CNCC(C5)C6(F)F)ccc4C3)sc2n1` [Example 2-19, 3-amino-N-((3R)-7-(9,9-difluoro-3,7-diazabicyclo[3.3.1]nonan-3-yl)chroman-3-yl)-4,6-dimethylthieno[2,3-b]pyridine-2-carboxamide], 1 to 50 nM; as for `Cc1cc(C)c2c(N)c(C(=O)N[C@H]3COc4cc(N5CC6CNCC(C5)O6)ccc4C3)sc2n1` [Example 2-20, N-((3R)-7-(9-oxa-3,7-diazabicyclo[3.3.1]nonan-3-yl)chroman-3-yl)-3-amino-4,6-dimethylthieno[2,3-b]pyridine-2-carboxamide], 1 to 50 nM. On the same count and under the same terms, as for `Cc1cc(C(F)(F)F)c2c(N)c(C(=O)N[C@H]3COc4cc(N5CC6CC(C5)N6)ccc4C3)sc2n1` [Example 2-21], the figure is 50 to 200 nM; as for `Cc1cc(C(F)(F)F)c2c(N)c(C(=O)N[C@H]3COc4cc(N5CC6CNCC(C5)C6(F)F)ccc4C3)sc2n1` [Example 2-22, 3-amino-N-((3R)-7-(9,9-difluoro-3,7-diazabicyclo[3.3.1]nonan-3-yl)chroman-3-yl)-6-methyl-4-(trifluoromethyl)thieno[2,3-b]pyridine-2-carboxamide], 1 to 50 nM. Consider `Cc1cc(C(F)(F)F)c2c(N)c(C(=O)N[C@H]3COc4cc(N5CC6CNCC(C5)O6)ccc4C3)sc2n1` [Example 2-23, N-((3R)-7-(9-oxa-3,7-diazabicyclo[3.3.1]nonan-3-yl)chroman-3-yl)-3-amino-6-methyl-4-(trifluoromethyl)thieno[2,3-b]pyridine-2-carboxamide], for which the IC50 (Ub-Rh110 assay) is 1 to 50 nM.

Take `O=C(N[C@H]1COc2cc(N3CC4CCC(C3)N4)ccc2C1)c1cnc2c(c1)C1(CCN2)CC1` [Example 2-24, N-((3R)-7-(3,8-diazabicyclo[3.2.1]octan-3-yl)chroman-3-yl)-2′,3′-dihydro-1′H-spiro[cyclopropane-1,4′-[1,8]naphthyridine]-6′-carboxamide]: the IC50 (Ub-Rh110 assay) fell in the range of 200 to 2000 nM. Take `O=C(N[C@H]1COc2cc(N3CC4CCC(C3)N4)ccc2C1)c1ccc(NCc2ccccc2)nc1` [Example 2-25, N-((3R)-7-(3,8-diazabicyclo[3.2.1]octan-3-yl)chroman-3-yl)-6-(benzylamino)nicotinamide]: the IC50 (Ub-Rh110 assay) lay in the range of 50 to 200 nM. Still for that read-out and setting: as for `Cc1nc2sc(C(=O)N[C@H]3COc4cc(N5CC6CC(C5)N6)ccc4C3)c(N)c2s1` [Example 2-26, N-((3R)-7-(3,6-diazabicyclo[3.1.1]heptan-3-yl)chroman-3-yl)-6-amino-2-methylthieno[2,3-d]thiazole-5-carboxamide], the figure is 200 to 2000 nM.

With `Cc1nc2sc(C(=O)N[C@H]3COc4cc(N5CC6CCCC(C5)N6)ccc4C3)c(N)c2s1` [Example 2-27], the IC50 (Ub-Rh110 assay) was in the range of 200 to 2000 nM. Same read-out and setting: the value for `Cc1nc2sc(C(=O)N[C@H]3COc4cc(N5CC6CNCC(C5)C6(F)F)ccc4C3)c(N)c2s1` [Example 2-28, 6-amino-N-((3R)-7-(9,9-difluoro-3,7-diazabicyclo[3.3.1]nonan-3-yl)chroman-3-yl)-2-methylthieno[2,3-d]thiazole-5-carboxamide] was 50 to 200 nM; that for `CCn1ccc2cc(C(=O)N[C@H]3COc4cc(N5CC6CCCC(C5)N6)ccc4C3)nnc21` [Example 2-29, N-((3R)-7-(3,9-diazabicyclo[3.3.1]nonan-3-yl)chroman-3-yl)-7-ethyl-7H-pyrrolo[2,3-c]pyridazine-3-carboxamide] was 200 to 2000 nM. For the compound `CCn1ccc2cc(C(=O)N[C@H]3COc4cc(N5CC6CNCC(C5)C6(F)F)ccc4C3)cnc21` [Example 2-30, N-((3R)-7-(9,9-difluoro-3,7-diazabicyclo[3.3.1]nonan-3-yl)chroman-3-yl)-1-ethyl-1H-pyrrolo[2,3-b]pyridine-5-carboxamide], the IC50 (Ub-Rh110 assay) was in the range of 1 to 50 nM. The same measure, in the same setting: as for `Cc1cc(C)c2c(N)c(C(=O)N[C@H]3COc4c(C#N)c(N5CCNCC5)cc(F)c4C3)sc2n1` [Example 2-31, (R)-3-amino-N-(8-cyano-5-fluoro-7-(piperazin-1-yl)chroman-3-yl)-4,6-dimethylthieno[2,3-b]pyridine-2-carboxamide], the figure is 200 to 2000 nM; as for `Cc1cc(C)c2c(N)c(C(=O)N[C@H]3COc4cc(N5CCNCC5)c(C#N)c(F)c4C3)sc2n1` [Example 2-32, (R)-3-amino-N-(6-cyano-5-fluoro-7-(piperazin-1-yl)chroman-3-yl)-4,6-dimethylthieno[2,3-b]pyridine-2-carboxamide], 1 to 50 nM; as for `Cc1ccc2c(N)c(C(=O)N[C@H]3COc4cc(N5CC6CNCC(C5)C6(F)F)c(C#N)cc4C3)sc2n1` [Example 2-33, 3-amino-N-((3R)-6-cyano-7-(9,9-difluoro-3,7-diazabicyclo[3.3.1]nonan-3-yl)chroman-3-yl)-6-methylthieno[2,3-b]pyridine-2-carboxamide], 1 to 50 nM. Still for that read-out and setting: as for `[2H]C([2H])([2H])O[C@H]1CN(c2ccc3c(c2)OC[C@H](NC(=O)c2sc4nc(C)ccc4c2N)C3)C[C@@H]1N` [Example 2-38, 3-amino-N-((R)-7-((3S,4S)-3-amino-4-(methoxy-d3)pyrrolidin-1-yl)chroman-3-yl)-6-methylthieno[2,3-b]pyridine-2-carboxamide], the figure is 200 to 2000 nM. Turning to `Cc1cnc2c(N)c(C(=O)N[C@H]3CCc4nc(N5CCNCC5)ccc4C3)sc2n1` [Example 23-6, 7-amino-3-methyl-N-[(6S)-2-(piperazin-1-yl)-5,6,7,8-tetrahydroquinolin-6-yl]thieno[2,3-b]pyrazine-6-carboxamide], the IC50 (Ubiquitin-Rhodamine 110 assay) lay within 200 to 2000 nM.

(Values after US11524966B1 (Valo Early Discovery, Inc., priority 2017, dated 2022).)
